# Data published in US5739131A, “Benzene derivatives and pharmaceutical composition” (Kureha Chemical Industry Co., Ltd., priority 1994, dated 1998).
# How the values were obtained:
# [1] = target: T1, angiotensin II receptor subtype 1 (AT1) (Oryctolagus cuniculus, UniProt P34976); test: Binding assay, angiotensin II receptor subtype 1 (AT1); parameters: species or system rabbit (adrenal glands); settings: 100 μM, AT1, rabbit adrenal glands
# T1 construct: receptor: from adrenal glands in rabbits; from tissue; host or cells: rabbit adrenal glands
# T1 sequence (P34976 1-359): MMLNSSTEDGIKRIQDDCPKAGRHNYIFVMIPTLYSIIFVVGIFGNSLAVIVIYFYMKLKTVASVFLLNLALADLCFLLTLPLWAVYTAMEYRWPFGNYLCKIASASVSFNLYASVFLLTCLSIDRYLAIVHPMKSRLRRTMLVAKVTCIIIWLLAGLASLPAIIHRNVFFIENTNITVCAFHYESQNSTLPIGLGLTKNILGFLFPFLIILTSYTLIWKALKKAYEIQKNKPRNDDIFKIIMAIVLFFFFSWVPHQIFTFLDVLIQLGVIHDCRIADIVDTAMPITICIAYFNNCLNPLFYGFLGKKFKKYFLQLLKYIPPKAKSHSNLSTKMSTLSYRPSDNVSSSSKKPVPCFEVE
# Method: (§1) In this Example, the affinity to the angiotensin II receptor subtype 1 or subtype 2 was evaluated by a binding assay in accordance with the method described in Biochem. Pharmacol., 33, 4057-4062 (1984).
# (§2) Specifically, the measurement of the total binding in the presence of each drug was performed as follows:
# (§3) A mixture (final volume=0.25 ml) of a drug in a given concentration (the drug was dissolved in DMSO, and diluted to a double volume with a buffer attached to a drug discovery system to prepare sample for the assay; 0.025 ml), a tracer (0.025 ml), and receptors (0.2 ml) was incubated [in the case of the angiotensin II receptor subtype 1 (AT1), at room temperature for 3 hours, and in the case of the subtype 2 (AT2), at 37° C. for 1 hour]. Then, the reaction mixture was filtered with suction (GF/C filter was used in AT1, and GF/B filter was used in AT2). The filter papers after filtration with suction (the tracer bound to the receptors) were counted by a γ-well counter (ARC-500, Aloka). The non-specific bindings were measured by repeating the above method, except that a large excess amount of a displacer was added. The specific binding of the drug in the given concentration was calculated by subtracting the non-specific binding from the total binding, respectively.
# (§4) In AT1 and AT2, the percentages to inhibit the bindings of radioactive ligands (tracer) to receptors by the drugs to be tested (IC50 value of concentration to show 50% inhibition, or binding inhibition % in 100 μM) were measured, using the drugs to be tested and control drugs in the given concentration.
# [2] = target: T2, angiotensin II receptor subtype 2 (AT2) (Bos taurus, UniProt G5E6F7); test: Binding assay, angiotensin II receptor subtype 2 (AT2); parameters: species or system bovine (cerebellar cortex); settings: 100 μM, AT2, bovine cerebellar cortex, 37° C. 1 hour; read-out: Binding inhibition % in 100 μm, AT2
# T2 construct: receptor: from cerebellar cortex in bovine; from tissue; host or cells: bovine cerebellar cortex
# T2 sequence (G5E6F7 1-362): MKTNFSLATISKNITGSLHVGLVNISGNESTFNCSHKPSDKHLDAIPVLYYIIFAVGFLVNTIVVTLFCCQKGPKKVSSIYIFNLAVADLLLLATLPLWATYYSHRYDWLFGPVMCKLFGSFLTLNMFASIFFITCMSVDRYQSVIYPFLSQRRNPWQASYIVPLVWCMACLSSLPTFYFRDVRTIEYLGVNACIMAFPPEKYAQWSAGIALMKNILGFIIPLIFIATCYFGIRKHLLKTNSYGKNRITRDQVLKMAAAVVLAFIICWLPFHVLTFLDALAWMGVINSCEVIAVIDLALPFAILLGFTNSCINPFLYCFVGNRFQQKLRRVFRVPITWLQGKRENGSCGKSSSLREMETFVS
# Method: as §1, §2, §3, §4
# receptor: from cerebellar cortex in bovine
# tracer: ^125 ITyr^4angiotensin II
# control drug: angiotensin II (human)
# (displacer): angiotensin II (human)
# mice = test: Acute toxicity, single oral dose; format: in vivo
# Method: Five-week-old ICR female mice (5 mice per group) were bred for acclimation for a week. Then, the compounds of the present invention were dissolved or dispersed in an aqueous solution of 0.5% methylcellulose, and orally administered to the mice in a single dosage (500 mg/kg).
# [3] = system: kidney disease model rats; test: Action to depress blood pressure (tail cuff method); format: in vivo, Sprague-Dawley female rats; settings: systolic, average, 20 mg/kg per os, two days from administration; control (water) 203
# Method: The compounds of the present invention and the reference substance were forcedly administered per os to kidney disease model rats, and the action to depress blood pressure was observed. The kidney disease model rats were prepared by ligature of branches of renal artery in accordance with the conventional method, that is, the left hilum renalis of Sprague-Dawley female rats was exposed under anesthesia, and one of four secondary branches of renal artery was left unligated, while the remaining three branches were ligated, respectively. After a week, the hilum renalis (artery, vein, and ureter) of the right kidney were further ligated to thereby prepare the rats whose renal function was lowered to approximately 1/8 of the normal function. Each group consisted of eight rats. The drugs to be tested (20 mg/kg) were administered to each administering group, and only water was administered to control group. After two days from the administration, the systolic blood pressure was measured by the tail cuff method using a blood pressure measuring apparatus (UR5000; Ueda).
# [4] = system: kidney disease model rats; test: Renal function indicatory value (action to kidney diseases); format: in vivo, Sprague-Dawley female rats; settings: 20 mg/kg/day per os, two weeks; for Creatinine clearance: 24 hours urine, control 0.20; for Creatinine / Urea nitrogen: serum; for Creatinine: control 2.0; for Urea nitrogen: control 100
# Method: The kidney disease model rats were prepared as in Example 115. Twenty-five groups (8 rats per group) were sleeked in a manner so that there were no major differences between each group in the serum creatinine value and the urea nitrogen value indicating renal function. The rats in each group were allowed to freely take up feed and water. […] To the rats in the control group, only water was forcedly administered per os every day. After two weeks, 0.2 ml of blood was collected from the carotid artery of the rat under anesthesia, and centrifuged to obtain serum. Using 25 μl of the serum, serum creatinine (Scr) was measured by a creatinine analytical instrument (Beckman). Using 10 μl of the serum, urea nitrogen (BUN) was measured by a BUN analytical instrument (Beckman). Creatinine clearance was evaluated as follows:
# After serum creatinine measurement, rats were placed in urinary metabolic cages for 24 hours to collect urine. Urinary creatine concentration (Ucr) was measured by a creatinine analytical instrument, and total volume of urination (Uvol) was also measured. Creatinine clearance (CCr) was calculated by the following formula: [formula]
# [5] = system: kidney disease model rats; test: Action to survival time of kidney diseased animals; format: in vivo, Sprague-Dawley female rats; settings: 20 mg/kg/day per os, observation eight weeks (upper limit); control 5.0
# Method: The kidney disease model rats were prepared as in Example 115. Twenty-five groups (8 rats per group) were prepared in a manner so that there was no major difference between the groups in the serum creatinine value and the urea nitrogen value indicating renal function. The rats in each group were allowed to freely take up feed and water. […] To the rats in the control group, only water was forcedly administered per os every day. If kidney diseases are aggravated, the rat will die of uremia. Thus, the survival time was observed as comprehensive indication of the improvement effect on the kidney diseases. The observation period was eight weeks. Thus if all rats survived, the average survival time is eight weeks and it is an upper limit.
Structure (SMILES),inhibition at 100 µM [1],inhibition at 100 µM [2],"Number of deaths/number of survivals (mice; mice, single oral 500 mg/kg, observed for 6 days, 5 per group)",Blood pressure [3],Creatinine clearance [4],Creatinine [4],Urea nitrogen [4],Average survival time [5],"Number of deaths/number of survivals (mice; mouse, in vivo, po, 500 mg/kg)"
"CCCCC(=O)Nc1ccc(C(=O)N2CCOCC2)cc1NCc1ccc(C(=O)O)cc1 [Compound No. 1, 3-[(4-carboxyphenyl)methylamino]4-valeramidobenzoic acid morpholide]",33%,0%,0/5,196 mmHg,0.34 mL/min,1.6 mg/dL,75 mg/dL,7.1 weeks,–
"CCCCCN(C)c1ccc(C(=O)N2CCOCC2)cc1NCc1ccc(C(=O)O)cc1 [Compound No. 41, 4-(N-n-amyl-N-methyl)amino-3-[(4-carboxyphenyl)methyl]aminobenzoic acid morpholide]",26%,0%,–,195 mmHg,0.36 mL/min,1.6 mg/dL,72 mg/dL,7.6 weeks,0/5
"CCCCCCc1ccc(C(=O)N2CCOCC2)cc1NCc1ccc(C(=O)O)cc1 [Compound No. 75, 3-[(4-carboxyphenyl)methyl]amino-4-hexylbenzoic acid morpholide]",15%,0%,–,–,–,–,–,–,–
"CCCCC(=O)N(Cc1ccc(C(=O)O)cc1)c1cccc(C(=O)N2CCOCC2)c1 [Compound No. 90, 3-[N-(4-carboxyphenyl)methyl]valeramidobenzoic acid morpholide]",30%,0%,–,194 mmHg,0.38 mL/min,1.5 mg/dL,70 mg/dL,7.6 weeks,0/5
"CCCCCN(Cc1ccc(C(=O)O)cc1)c1cccc(C(=O)N2CCOCC2)c1 [Compound No. 158, 3-[N-(4-carboxyphenyl)methyl]-n-amylaminobenzoic acid morpholide]",18%,0%,–,190 mmHg,0.37 mL/min,1.7 mg/dL,74 mg/dL,7.2 weeks,0/5
"CCCCC(=O)N(Cc1ccc(C(=O)O)cc1)c1cc(C(=O)N2CCOCC2)ccc1N(C)C [Compound No. 184, 3-N-[[(4-carboxyphenyl)methyl]valeramido]-4-dimethylaminobenzoic acid morpholide]",0%,0%,–,195 mmHg,0.38 mL/min,1.5 mg/dL,70 mg/dL,7.6 weeks,0/5
CCCNC(=O)N(Cc1ccc(C(=O)O)cc1)c1cc(C(=O)N2CCOCC2)ccc1N(C)C [Compound No. 225],4%,0%,–,195 mmHg,0.25 mL/min,1.8 mg/dL,73 mg/dL,7.0 weeks,0/5
"CCCCCN(Cc1ccc(C(=O)O)cc1)c1cc(C(=O)N2CCOCC2)ccc1N(C)C [Compound No. 252, 4-dimethylamino-3-[N-(4-carboxyphenyl)methyl]-n-amylaminobenzoic acid morpholide]",34%,0%,–,200 mmHg,0.28 mL/min,1.7 mg/dL,73 mg/dL,7.0 weeks,0/5
"CCCCC(=O)N(Cc1ccc(C(=O)O)cc1)c1cc(C(=O)N2CCOCC2)ccc1C [Compound No. 278, 4-methyl-3-N-[[4-(carboxyphenyl)methyl]valeramido]benzoic acid morpholide]",4%,0%,–,198 mmHg,0.36 mL/min,1.8 mg/dL,73 mg/dL,7.0 weeks,0/5
"CCCCC(=O)N(Cc1ccc(C(=O)O)cc1)c1cc(C(=O)N2CCOCC2)ccc1C(C)C [Compound No. 372, 3-N-[[(4-carboxyphenyl)methyl]valeramido]-4-isopropylbenzoicacid morpholide]",2%,0%,–,190 mmHg,0.36 mL/min,1.7 mg/dL,72 mg/dL,7.6 weeks,0/5
"CCCCC(=O)N(Cc1ccc(C(=O)O)cc1)c1cc(S(=O)(=O)N2CCOCC2)ccc1N(C)C [Compound No. 597, 4-[[3-N-[(4-carboxyphenyl)methyl]valeramido-4-dimethylaminobenzene]sulfonyl]morpholine]",0%,0%,–,–,–,–,–,–,–
